Like-named read-outs stand apart in the source and are kept apart here.
What was measured:
Assay in all cases: microbe, parasite or virus in culture
Format in all cases: cell-based
[1] = tested on: Candida albicans KCTC 7270; conditions: WST colorimetric, YMB
Description: (§1) The antifungal activities of the peptides were evaluated against two yeast fungi, C. albicans KCTC 7270 and C. cuniculi KCTC 17232, and a mold fungus, M. hiemalis KCTC 26779. C. albicans and C. cuniculi were cultured in yeast mold broth (YMB; BD Science) agar at 35 °C and 25 °C, respectively. Cells were prepared in YMB for C. albicans and RPMI 1640 medium (with l-glutamine, without phenol red and sodium bicarbonate, Sigma Aldrich, Saint Louis, MO, USA) and adjusted to pH 7.0 with 0.165 M 3-(N-morpholino) propanesulfonic acid (MOPS) (iNtRON Biotechnology, Seoul, Korea), as previously described for C. cuniculi. According to the 0.5 McFarland standard, cells at 1.5 × 10^5 CFU/well were seeded into a 96-well plate containing 180 µL of fresh medium. Subsequently, peptides at final concentrations of 5–45 ug/mL (1.2–19.3 μM) peptides were added to each well. Ciclopirox (≥98% (HPLC), Sigma Aldrich) was used as a reference for the antifungal activity. The antifungal assay was conducted in the same manner as the antibacterial assay described above, according to the manufacturer’s protocol. Briefly, C. albicans and C. cuniculi were incubated at 35 °C for 6 h and 25 °C for 47 h, respectively, and 10 µL of the coloring reagent was added and further incubated for 18 h and 25 h. The MIC values were determined in the same way as for the antibacterial assay.

[2] = tested on: Cryptococcus cuniculi KCTC 17232; conditions: WST colorimetric
Description: as §1

[3] = tested on: Mucor hiemalis KCTC 26779; conditions: KCTC26779, concentration not given, peptides tested at 20, 40, and 80 µg/mL, fluvastatin sodium 70 µM, read-out: rate of metabolic inhibition
Description: To evaluate the antifungal activity of peptides against M. hiemalis, the metabolic activity of hyphae was measured using the same colorimetric assay as described above, with slight modifications to a previous study. Briefly, M. hiemalis was streaked onto malt extract broth (BD Biosciences) agar in a Petri dish and cultured at 25 °C for seven days. Then, conidia were collected from the dish by adding phosphate buffered saline (PBS) containing 0.05% Tween-80 (Sigma Aldrich) and filtered through sterilized 40 um cell strainer (SPL Life Science, Pocheon, Korea) to remove hyphae. After washing twice with PBS and centrifugation, 5 × 10^4 conidia were counted using a hemocytometer, suspended in 50 µL of RPMI 1640 as described above, and seeded in wells of a 96-well plate. After 16 h of incubation at 25 °C for hyphae formation, the plate was centrifuged at 3000× g and the media were changed. The peptides were then added at final concentrations of 20, 40, and 80 µg/mL. Fluvastatin sodium (70 µM; Sigma-Aldrich) was used as a reference for antifungal activity. […] The absorbance at 450 nm (for the treated group and control) and 650 nm (for the background) was measured for each well using a microplate reader (xMarkTM spectrophotometer; Bio-Rad). The metabolic activity of the fungal cells was calculated using the following equation. […]

MIC ([1]; Candida albicans, KCTC7270, value in brackets, 35 °C 6 h + 18 h, read-out: MIC (converted))	MIC ([1]; 1.5 × 10^5 CFU/well, 35 °C 6 h + 18 h coloring reagent)	MIC ([2]; Cryptococcus, KCTC17232, value in brackets, RPMI 1640 with MOPS pH 7.0, 25 °C 47 h + 25 h, read-out: MIC)	MIC ([2]; RPMI 1640 with MOPS pH 7.0, 1.5 × 10^5 CFU/well, 25 °C 47 h + 25 h coloring reagent)	Structure (SMILES)	inhibition at 70 µM [3]
16.9 µM	3.5 µg/mL	2.4 µM	0.5 µg/mL	Cc1cc(C2CCCCC2)n(O)c(=O)c1 [Ciclopirox]	
				CC(C)n1c(/C=C/C(O)CC(O)CC(=O)O)c(-c2ccc(F)cc2)c2ccccc21 (centres unmarked) [fluvastatin sodium, Fluvastatin sodium]	~80%

From paper PMC9330922, “Genomewide Analysis and Biological Characterization of Cathelicidins with Potent Antimicrobial Activity and Low Cytotoxicity from Three Bat Species” (Antibiotics, 2022)
